Data from patent publication US20100168167A1, “Piperidinones Useful in the Treatment of Inflammation” (priority 2007, published 2010).

Molecular target: T1, PDE4 enzyme (U937 lysate or recombinant hPDE4)
T1 construct: cDNA containing PDE4D1 was cloned into a baculovirus vector, insect cells (SF9) were then infected and cells cultured to express the PDE4 protein
Assay: In vitro inhibition of PDE4, Method A ([3H]cAMP SPA enzyme assay)
Format: biochemical, human
Settings: Biological Example 1, Method A
Method: PDE4 U937 cytoplasmic extracts were prepared by a modified procedure of the assay described in MacKenzie, S. J. and Houslay, M. D., “Action of rolipram on specific PDE4 cAMP phosphodiesterase isoforms and on the phosphorylation of cAMP-response-element-binding protein (CREB) and p38 mitogen-activated protein (MAP) kinase in U937 monocytic cells”, Biochem J. (2000), 347(Pt 2):571-8, by lysis of U937 cells (ATCC: Catalogue No. CRL-159) in M-PER Lysis buffer (Pierce) containing 10% protease inhibitor cocktail (Sigma). The cell lysates were then centrifuged at 30,000 rpm for 15 minutes at 4° C. The supernatants were aliquoted and stored at −80° C.
An alternative source of PDE4 enzymes was from recombinant human PDE4 obtained from baculovirus-SF9 cells expression system. cDNA containing PDE4D1 was cloned into a baculovirus vector, insect cells (SF9) were then infected and cells cultured to express the PDE4 protein. The cells were lysed and used directly in assay or partially purified using standard procedures. The process can be used for other PDE4 and PDE enzymes.
Compounds of the invention were evaluated for inhibitory activity against PDE4 enzymes by the following assay Method A or B.
PDE4 assay based on modified procedure of Phosphodiesterase [^3H]cAMP SPA Enzyme Assay (Amersham Biosciences, code TRKQ 7090). In this assay, PDE4 enzymes converts [^3H]cAMP to [^3H]5′-AMP. The assay is quenched by the addition of SPA yttrium silicate beads which preferentially bind linear nucleotides over cyclic nucleotides in the presence of zinc sulphate.
Reactions were performed in duplicate by the addition of 10 μl PDE4 enzyme (U937 lysate or recombinant hPDE4) to 20 μL of assay mix and 20 μL of test compounds in Isoplates (Wallac) for 30 minutes, at 37° C. The final assay mixture contained: 50 mM Tris (pH 7.5), 8.3 mM MgCl2, 1.7 mM EGTA and [^3H]cAMP (0.025 μCi) (Amersham). Assay was terminated by addition 25 μL SPA beads. The plate was sealed, shaken for 1 minute and then allowed to settle 30 minutes and the cpm determined using a Wallac Micobeta.

With COc1ccc([C@H]2CNC(=O)[C@H](Cc3cccnc3)C2)cc1OC1CCCC1 [(3S,5S)-5-(3-(cyclopentyloxy)-4-methoxyphenyl)-3-(3-pyridinylmethyl)piperidin-2-one] as the compound, how does the IC50 read?
Its IC50 is 0.489 µM.

For COc1ccc2oc(C[C@H]3C[C@@H](c4ccc(OC)c(OC5CCCC5)c4)CNC3=O)cc2c1 [(3R,5S)-5-(3-cyclopentyloxy-4-methoxyphenyl)-3-(5-methoxy-2-benzofurylmethyl)piperidin-2-one], which IC50 is on record?
Its IC50 is 0.373 µM.

How did the IC50 turn out when C=CCC1C[C@@H](c2ccc(OC)c(OC3CCCC3)c2)CNC1=O (stereo partly drawn) [(5S)-3-allyl-5-(3-(cyclopentyloxy)-4-methoxyphenyl)piperidin-2-one] was run?
Its IC50 is 0.29 µM.

COc1ccc([C@H]2CNC(=O)/C(=C/c3cccc(C)c3)C2)cc1OC1CCCC1 [(S,E)-5-(3-(cyclopentyloxy)-4-methoxyphenyl)-3-(3-methylbenzylidene)piperidin-2-one] was tested. Which IC50 did it give?
Its IC50 is 0.389 µM.

Which IC50 does the source give for COc1ccc([C@@H]2CCC(=O)N(C(=O)c3ccccc3)C2)cc1OC1CCCC1 [(S)-1-benzoyl-5-(3-(cyclopentyloxy)-4-methoxyphenyl)piperidin-2-one] here?
The IC50 was 0.187 µM.

With COc1ccc([C@H]2CNC(=O)[C@@H](Cc3nc4cc([N+](=O)[O-])ccc4o3)C2)cc1OC1CCCC1 [(3R,5S)-5-(3-cyclopentyloxy-4-methoxyphenyl)-3-(5-nitro-2-benzoxazolylmethyl)piperidin-2-one] as the compound, how does the IC50 read?
Its IC50 is 0.653 µM.

For COc1ccc([C@H]2CNC(=O)C(CCNc3ccccc3)C2)cc1OC1CCCC1 (stereo partly drawn) [(5S)-5-(3-(cyclopentyloxy)-4-methoxyphenyl)-3-(2-(phenylamino)ethyl)piperidin-2-one], which IC50 is on record?
Its IC50 is 0.215 µM.

With COc1ccc([C@H]2CNC(=O)C(CC(=O)O)C2)cc1OC1CCCC1 (stereo partly drawn) [2-((5S)-5-(3-(cyclopentyloxy)-4-methoxyphenyl)-2-oxopiperidin-3-yl)acetic acid] as the compound, how does the IC50 read?
The IC50 was 1.19 µM.

For COc1ccc([C@@H]2CCC(=O)N(Cc3ccccc3)C2)cc1OC1CCCC1 [(S)-1-benzyl-5-(3-(cyclopentyloxy)-4-methoxyphenyl)piperidin-2-one], which IC50 is on record?
Its IC50 is 0.43 µM.

How did the IC50 turn out when COc1ccc([C@H]2CNC(=O)C(CC(O)CO)C2)cc1OC1CCCC1 (stereo partly drawn) [(5S)-5-(3-(cyclopentyloxy)-4-methoxyphenyl)-3-(2,3-dihydroxypropyl)piperidin-2-one] was run?
Its IC50 is 0.446 µM.

COc1ccc([C@H]2CNC(=O)[C@@H](CC3CCOC3)C2)cc1OC1CCCC1 (stereo partly drawn) [(3R,5S)-5-(3-(cyclopentyloxy)-4-methoxyphenyl)-3-((tetrahydrofuran-3-yl)methyl)piperidin-2-one] was tested. Which IC50 did it give?
Its IC50 is 1.49 µM.

Which IC50 does the source give for COc1ccc([C@H]2CNC(=O)C(CC(=O)Nc3cccnc3)C2)cc1OC1CCCC1 (stereo partly drawn) [2-((5S)-5-(3-(cyclopentyloxy)-4-methoxyphenyl)-2-oxopiperidin-3-yl)-N-(pyridin-3-yl)acetamide] here?
Its IC50 is 0.456 µM.

With C=CCC1(CC=C)C[C@@H](c2ccc(OC)c(OC3CCCC3)c2)CNC1=O [(S)-3,3-diallyl-5-(3-(cyclopentyloxy)-4-methoxyphenyl)piperidin-2-one] as the compound, how does the IC50 read?
Its IC50 is 0.651 µM.

Which IC50 does the source give for COc1ccc([C@@H]2CCC(=O)NC2)cc1-c1ccccc1 [(S)-5-(6-methoxybiphenyl-3-yl)piperidin-2-one] here?
The IC50 was 0.146 µM.
